Molecular target: T1, MorFDH (NAD+-dependent formate dehydrogenase from Moraxella sp. C-1) (Moraxella sp., UniProt O08375)
T1 construct: gene fdh; homodimer; 399 residues located, last two C-terminal residues not seen
T1 sequence (O08375 2-402): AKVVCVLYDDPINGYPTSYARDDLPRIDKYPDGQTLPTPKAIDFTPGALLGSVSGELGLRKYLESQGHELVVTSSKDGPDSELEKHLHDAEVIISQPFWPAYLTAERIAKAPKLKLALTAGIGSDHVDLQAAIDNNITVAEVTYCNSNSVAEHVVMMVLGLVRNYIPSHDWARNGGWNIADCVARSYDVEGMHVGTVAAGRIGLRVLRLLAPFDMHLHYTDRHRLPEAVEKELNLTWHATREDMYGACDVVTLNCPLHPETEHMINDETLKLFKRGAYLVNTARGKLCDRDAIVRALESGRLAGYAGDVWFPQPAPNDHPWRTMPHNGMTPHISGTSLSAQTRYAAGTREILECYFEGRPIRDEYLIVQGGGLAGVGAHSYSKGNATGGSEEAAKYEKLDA
Assay: X-ray crystal structure, […] A
Format: binding
Conditions: active site, co-crystallised with 5 mM NAD+ and 5 mM sodium azide, protein in pH 7.0 phosphate, reservoir pH 6.5, 20 C

| SMILES | X-ray crystal structure, 1.1 A (ternary complex with azide) | X-ray crystal structure, 1.1 A (ternary complex with NAD+, inhibitor, transition-state mimic) |
| --- | --- | --- |
| NC(=O)c1ccc[n+]([C@@H]2O[C@H](COP(=O)(O)OP(=O)(O)OC[C@H]3O[C@@H](n4cnc5c(N)ncnc54)[C@H](O)[C@@H]3O)[C@@H](O)[C@H]2O)c1 [NAD+] | The NAD ^+ molecule and one azide ion are bound in the active site of the enzyme | – |
| [N-]=[N+]=[N-] [azide ion] | – | The NAD ^+ molecule and one azide ion are bound in the active site of the enzyme |

From article PMC3347530, “Atomic Resolution Crystal Structure of NAD^+-Dependent Formate Dehydrogenase from Bacterium Moraxella sp. C-1” (Acta Naturae, 2009)
